This is an account of results in paper PMC12526218, “Design, Synthesis and Herbicidal Activity of 1,2,4-Oxadiazole Compounds as Novel Light-Dependent Protochlorophyllide Oxidoreductase Inhibitors” (Molecules, 2025).

The target of this test is Light-dependent protochlorophyllide oxidoreductase (AtLPOR). Nature of the test: Plant LPOR ELISA kit on Arabidopsis leaf extract, IC50. Format: biochemical, Arabidopsis thaliana. In general terms: ELISA stands for enzyme-linked immunosorbent assay.
One may read the IC50 as the concentration that inhibits the measured activity by half. A high value points to a need for much substance. On to `O=[N+]([O-])c1cccc(-c2noc(COCc3ccccc3)n2)c1` [5k, 5-((benzyloxy)methyl)-3-(3-nitrophenyl)-1,2,4-oxadiazole], for which the IC50 amounted to 83.6 µM.

Regarding `c1ccc(COCc2nc(-c3ccc(OCc4ccccc4)cc3)no2)cc1` [5q, 5-((benzyloxy)methyl)-3-(4-(benzyloxy)phenyl)-1,2,4-oxadiazole], the IC50 amounted to 17.6 µM.

`O=[N+]([O-])c1ccc(-c2noc(COCc3ccccc3)n2)cc1` [5j, 5-((benzyloxy)methyl)-3-(4-nitrophenyl)-1,2,4-oxadiazole] registered an IC50 of 111 µM.
